Laboratory results from article PMC12586182 (Frontiers in Oncology, 2025).

Tests used:
Type in all cases: biochemical
SIK = molecular target: T1, SIK (Homo sapiens, UniProt P57059); assay: Kinase panel profiling at 1 µmol/L (mobility shift assay, Carna); conditions: 1 µmol/L of BTK inhibitor
T1 construct: purchased Carna Biosciences

PKCε = molecular target: T2, PKCε (Homo sapiens, UniProt Q02156); assay: as above; conditions: 1 µmol/L of BTK inhibitor
T2 construct: purchased Carna Biosciences
T2 sequence (Q02156 1-737): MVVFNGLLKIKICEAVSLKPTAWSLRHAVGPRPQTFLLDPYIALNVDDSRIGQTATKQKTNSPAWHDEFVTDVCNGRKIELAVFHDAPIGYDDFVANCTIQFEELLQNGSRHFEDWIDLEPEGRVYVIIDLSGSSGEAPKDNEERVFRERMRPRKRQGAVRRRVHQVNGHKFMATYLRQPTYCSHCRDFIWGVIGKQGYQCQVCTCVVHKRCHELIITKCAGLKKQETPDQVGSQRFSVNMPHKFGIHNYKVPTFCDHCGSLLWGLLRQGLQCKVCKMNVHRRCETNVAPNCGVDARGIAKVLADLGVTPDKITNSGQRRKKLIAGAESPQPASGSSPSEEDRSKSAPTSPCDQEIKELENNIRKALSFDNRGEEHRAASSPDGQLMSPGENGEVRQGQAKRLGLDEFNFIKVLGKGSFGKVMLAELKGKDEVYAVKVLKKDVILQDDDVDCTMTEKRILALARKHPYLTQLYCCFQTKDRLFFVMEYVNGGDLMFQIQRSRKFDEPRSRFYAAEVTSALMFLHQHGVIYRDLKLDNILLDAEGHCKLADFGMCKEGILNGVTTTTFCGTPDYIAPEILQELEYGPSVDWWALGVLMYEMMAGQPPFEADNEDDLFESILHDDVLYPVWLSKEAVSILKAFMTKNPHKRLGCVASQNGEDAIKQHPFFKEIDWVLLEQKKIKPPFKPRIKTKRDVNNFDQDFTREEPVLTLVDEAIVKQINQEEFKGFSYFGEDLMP

NEK2 = molecular target: T3, NEK2 (Homo sapiens, UniProt P51955); assay: as above; conditions: 1 µmol/L of BTK inhibitor
T3 construct: purchased Carna Biosciences
T3 sequence (P51955 1-445): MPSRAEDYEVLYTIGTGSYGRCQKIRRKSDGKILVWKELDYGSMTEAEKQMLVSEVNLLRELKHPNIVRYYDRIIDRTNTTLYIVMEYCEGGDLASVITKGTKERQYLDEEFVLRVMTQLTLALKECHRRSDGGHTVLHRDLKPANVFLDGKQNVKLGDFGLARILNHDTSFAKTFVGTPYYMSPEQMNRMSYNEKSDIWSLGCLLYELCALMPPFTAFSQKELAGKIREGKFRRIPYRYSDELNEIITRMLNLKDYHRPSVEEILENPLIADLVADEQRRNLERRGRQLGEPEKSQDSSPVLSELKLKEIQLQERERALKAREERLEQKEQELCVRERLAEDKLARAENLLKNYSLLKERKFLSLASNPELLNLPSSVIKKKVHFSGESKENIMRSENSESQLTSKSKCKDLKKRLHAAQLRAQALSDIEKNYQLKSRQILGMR

BTK = molecular target: T4, BTK (Homo sapiens, UniProt Q06187); assay: Kinase enzyme activity assay (mobility shift assay, Carna); conditions: for Percentage inhibition of kinase enzyme activity: BTK, 1 µmol/L of BTK inhibitor
T4 construct: purchased Carna Biosciences, Inc

LATS2 = molecular target: T5, LATS2 (Homo sapiens, UniProt Q9NRM7); assay: Kinase panel profiling at 1 µmol/L (mobility shift assay, Carna); conditions: 1 µmol/L of BTK inhibitor
T5 construct: purchased Carna Biosciences
T5 sequence (Q9NRM7 1-1088): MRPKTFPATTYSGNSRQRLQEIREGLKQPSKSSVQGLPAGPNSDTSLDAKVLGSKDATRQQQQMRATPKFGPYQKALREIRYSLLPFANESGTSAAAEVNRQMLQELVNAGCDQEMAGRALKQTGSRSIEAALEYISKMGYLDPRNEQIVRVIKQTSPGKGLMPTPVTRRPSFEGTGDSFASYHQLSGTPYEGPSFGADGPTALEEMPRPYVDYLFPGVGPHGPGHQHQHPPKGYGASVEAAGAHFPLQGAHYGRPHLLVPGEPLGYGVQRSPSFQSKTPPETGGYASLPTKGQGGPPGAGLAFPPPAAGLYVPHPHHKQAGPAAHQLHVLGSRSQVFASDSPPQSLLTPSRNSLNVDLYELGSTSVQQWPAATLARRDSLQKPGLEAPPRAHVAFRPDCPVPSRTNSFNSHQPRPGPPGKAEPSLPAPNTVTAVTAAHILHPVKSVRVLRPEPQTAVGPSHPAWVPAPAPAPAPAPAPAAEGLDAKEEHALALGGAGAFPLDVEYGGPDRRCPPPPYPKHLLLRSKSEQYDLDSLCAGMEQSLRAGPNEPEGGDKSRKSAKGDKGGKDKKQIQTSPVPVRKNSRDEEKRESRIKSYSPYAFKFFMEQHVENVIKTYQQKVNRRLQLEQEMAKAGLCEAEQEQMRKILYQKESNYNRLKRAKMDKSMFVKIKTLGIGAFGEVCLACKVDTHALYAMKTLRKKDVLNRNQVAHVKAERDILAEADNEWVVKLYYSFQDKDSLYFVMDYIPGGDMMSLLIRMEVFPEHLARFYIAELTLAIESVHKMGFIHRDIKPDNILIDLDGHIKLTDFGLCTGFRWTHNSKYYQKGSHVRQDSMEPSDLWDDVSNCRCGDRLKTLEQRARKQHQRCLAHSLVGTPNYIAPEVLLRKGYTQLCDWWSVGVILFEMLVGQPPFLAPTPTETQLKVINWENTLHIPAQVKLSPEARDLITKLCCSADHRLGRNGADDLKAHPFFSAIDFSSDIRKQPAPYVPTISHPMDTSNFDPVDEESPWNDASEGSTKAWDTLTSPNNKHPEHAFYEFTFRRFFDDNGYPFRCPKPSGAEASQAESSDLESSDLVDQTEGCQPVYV

LOK = molecular target: T6, LOK (Homo sapiens, UniProt O94804); assay: as above; conditions: 1 µmol/L of BTK inhibitor
T6 construct: purchased Carna Biosciences

PKCγ = molecular target: T7, PKCγ (Homo sapiens, UniProt P05129); assay: as above; conditions: 1 µmol/L of BTK inhibitor
T7 construct: purchased Carna Biosciences

MARK3 = molecular target: T8, MARK3 (Homo sapiens, UniProt P27448); assay: as above; conditions: 1 µmol/L of BTK inhibitor
T8 construct: purchased Carna Biosciences
T8 sequence (P27448 whole entry): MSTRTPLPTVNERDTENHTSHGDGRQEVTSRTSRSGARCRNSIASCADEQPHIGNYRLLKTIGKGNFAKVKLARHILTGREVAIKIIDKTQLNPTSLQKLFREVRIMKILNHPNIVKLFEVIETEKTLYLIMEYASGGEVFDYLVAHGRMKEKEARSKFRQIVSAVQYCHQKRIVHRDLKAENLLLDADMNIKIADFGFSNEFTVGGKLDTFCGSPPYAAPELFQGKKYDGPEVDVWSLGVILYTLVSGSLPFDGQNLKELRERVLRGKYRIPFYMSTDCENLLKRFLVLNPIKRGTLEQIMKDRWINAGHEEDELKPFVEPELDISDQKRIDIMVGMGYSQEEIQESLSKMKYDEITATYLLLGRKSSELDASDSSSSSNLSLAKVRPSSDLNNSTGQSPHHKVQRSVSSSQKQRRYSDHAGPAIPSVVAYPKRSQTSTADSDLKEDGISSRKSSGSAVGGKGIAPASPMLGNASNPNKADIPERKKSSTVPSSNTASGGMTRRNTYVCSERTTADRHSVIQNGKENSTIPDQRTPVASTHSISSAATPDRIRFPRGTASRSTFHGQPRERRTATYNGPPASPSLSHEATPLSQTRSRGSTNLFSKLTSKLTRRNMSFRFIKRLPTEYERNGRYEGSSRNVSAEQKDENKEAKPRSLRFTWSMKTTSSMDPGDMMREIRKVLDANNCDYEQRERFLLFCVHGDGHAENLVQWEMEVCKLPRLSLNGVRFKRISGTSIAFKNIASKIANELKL

T1 sequence (P57059 whole entry): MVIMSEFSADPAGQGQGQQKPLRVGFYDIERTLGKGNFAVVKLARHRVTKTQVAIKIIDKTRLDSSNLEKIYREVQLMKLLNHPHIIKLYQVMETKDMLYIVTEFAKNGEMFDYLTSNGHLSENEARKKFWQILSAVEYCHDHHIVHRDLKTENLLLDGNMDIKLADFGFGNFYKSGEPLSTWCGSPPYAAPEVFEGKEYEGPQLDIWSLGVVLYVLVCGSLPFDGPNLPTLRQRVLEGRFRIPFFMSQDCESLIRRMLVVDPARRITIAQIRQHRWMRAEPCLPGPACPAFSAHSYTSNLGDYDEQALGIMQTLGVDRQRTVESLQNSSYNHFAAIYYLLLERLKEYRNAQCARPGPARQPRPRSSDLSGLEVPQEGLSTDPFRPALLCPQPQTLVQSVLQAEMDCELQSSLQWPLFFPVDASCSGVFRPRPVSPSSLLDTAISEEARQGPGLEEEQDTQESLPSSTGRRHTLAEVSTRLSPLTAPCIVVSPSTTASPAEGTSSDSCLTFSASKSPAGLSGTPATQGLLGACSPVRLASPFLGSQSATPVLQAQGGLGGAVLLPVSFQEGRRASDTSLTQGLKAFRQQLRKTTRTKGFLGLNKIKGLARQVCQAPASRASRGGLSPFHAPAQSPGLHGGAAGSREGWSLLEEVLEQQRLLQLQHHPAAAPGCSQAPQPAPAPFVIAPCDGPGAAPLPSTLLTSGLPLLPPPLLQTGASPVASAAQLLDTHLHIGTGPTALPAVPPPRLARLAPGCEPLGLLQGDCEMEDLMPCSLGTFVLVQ
T4 sequence (Q06187 whole entry): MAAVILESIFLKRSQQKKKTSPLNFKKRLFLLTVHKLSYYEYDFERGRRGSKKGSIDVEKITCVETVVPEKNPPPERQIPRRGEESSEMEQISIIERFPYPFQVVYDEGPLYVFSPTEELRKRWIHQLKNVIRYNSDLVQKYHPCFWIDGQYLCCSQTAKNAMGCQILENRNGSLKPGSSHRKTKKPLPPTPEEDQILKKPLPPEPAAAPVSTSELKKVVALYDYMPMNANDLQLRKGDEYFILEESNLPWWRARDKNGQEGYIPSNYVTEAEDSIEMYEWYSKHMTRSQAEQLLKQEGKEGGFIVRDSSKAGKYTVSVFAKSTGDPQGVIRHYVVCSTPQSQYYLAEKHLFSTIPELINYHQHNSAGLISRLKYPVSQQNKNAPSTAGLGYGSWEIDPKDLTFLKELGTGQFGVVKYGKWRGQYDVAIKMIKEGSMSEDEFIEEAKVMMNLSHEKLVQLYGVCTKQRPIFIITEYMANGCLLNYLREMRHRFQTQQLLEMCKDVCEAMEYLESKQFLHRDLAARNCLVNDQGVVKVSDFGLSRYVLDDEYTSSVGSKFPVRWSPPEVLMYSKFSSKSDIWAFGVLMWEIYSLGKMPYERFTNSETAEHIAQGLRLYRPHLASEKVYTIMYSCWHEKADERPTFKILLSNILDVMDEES
T6 sequence (O94804 whole entry): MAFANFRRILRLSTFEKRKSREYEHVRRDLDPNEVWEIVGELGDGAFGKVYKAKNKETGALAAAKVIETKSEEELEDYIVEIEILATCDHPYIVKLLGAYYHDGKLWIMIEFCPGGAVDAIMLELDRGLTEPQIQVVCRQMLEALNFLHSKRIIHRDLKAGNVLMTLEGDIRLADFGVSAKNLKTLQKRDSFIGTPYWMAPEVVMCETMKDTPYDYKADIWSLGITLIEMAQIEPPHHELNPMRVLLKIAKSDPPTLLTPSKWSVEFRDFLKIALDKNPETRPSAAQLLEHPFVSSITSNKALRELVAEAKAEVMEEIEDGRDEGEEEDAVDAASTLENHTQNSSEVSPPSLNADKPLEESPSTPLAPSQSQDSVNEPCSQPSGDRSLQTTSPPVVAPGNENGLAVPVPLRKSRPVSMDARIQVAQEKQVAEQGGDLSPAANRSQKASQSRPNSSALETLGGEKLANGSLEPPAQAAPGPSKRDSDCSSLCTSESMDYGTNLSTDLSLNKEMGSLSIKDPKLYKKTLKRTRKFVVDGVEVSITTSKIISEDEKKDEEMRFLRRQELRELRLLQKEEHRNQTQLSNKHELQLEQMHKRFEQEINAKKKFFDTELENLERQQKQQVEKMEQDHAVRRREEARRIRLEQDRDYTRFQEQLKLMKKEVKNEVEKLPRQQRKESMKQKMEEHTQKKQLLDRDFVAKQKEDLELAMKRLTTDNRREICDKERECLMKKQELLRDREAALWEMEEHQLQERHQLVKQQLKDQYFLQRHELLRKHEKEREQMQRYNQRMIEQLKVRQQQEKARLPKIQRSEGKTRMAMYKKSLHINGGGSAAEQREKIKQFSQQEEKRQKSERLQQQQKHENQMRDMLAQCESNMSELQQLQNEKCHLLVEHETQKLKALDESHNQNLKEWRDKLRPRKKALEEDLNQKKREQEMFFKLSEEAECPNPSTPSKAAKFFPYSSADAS

| SMILES | Percentage inhibition of kinase enzyme activity (SIK) [%] | Percentage inhibition of kinase enzyme activity (PKCε) [%] | Percentage inhibition of kinase enzyme activity (NEK2) [%] | Percentage inhibition of kinase enzyme activity (BTK) [%] | Percentage inhibition of kinase enzyme activity (LATS2) [%] | Percentage inhibition of kinase enzyme activity (LOK) [%] | Percentage inhibition of kinase enzyme activity (PKCγ) [%] | Percentage inhibition of kinase enzyme activity (MARK3) [%] | IC50 (BTK; K M,bin ATP) [nM] |
| --- | --- | --- | --- | --- | --- | --- | --- | --- | --- |
| CC#CC(=O)N1CCC[C@H]1c1nc(-c2ccc(C(=O)Nc3ccccn3)cc2)c2c(N)nccn12 [acalabrutinib] | 0.26 | -8.62 | -6.35 | 94.95 | -7.45 | 3.37 | -7.43 | -2.57 | – |
| O=C(c1ccc(Oc2ccccc2)cc1Cl)c1c[nH]c2ncnc(N[C@@H]3CC[C@@H](CO)OC3)c12 [nemtabrutinib] | 96.56 | 12.58 | 74.64 | 97.07 | 70.96 | 83.97 | 0.06 | 10.97 | – |
| COc1ccc(F)cc1C(=O)NCc1ccc(-c2nn([C@@H](C)C(F)(F)F)c(N)c2C(N)=O)cc1 [pirtobrutinib] | -2.28 | 18.12 | 2.00 | 98.09 | 2.57 | -1.51 | 3.04 | 5.64 | 2.3 |
| C=CC(=O)N1CCC[C@@H](n2nc(-c3ccc(Oc4ccccc4)cc3)c3c(N)ncnc32)C1 [ibrutinib] | 8.13 | 7.63 | 6.64 | – | 5.45 | 24.15 | 0.80 | -5.88 | – |
